Key:
Assay in all cases: radiometric filter-binding kinase assay
ULK2 (human) = ULK2 (human) (UniProt Q8IYT8)
PRKCG (human) = PRKCG (human) (UniProt P05129)
MAPK7 (human) = MAPK7 (human) (UniProt Q13164)
PTK6 (human) = PTK6 (human) (UniProt Q13882)
STK16 (human) = STK16 (human) (UniProt O75716)
DDR2 (human) = DDR2 (human) (UniProt Q16832)
NUAK1 (human) = NUAK1 (human) (UniProt O60285)
ZAP70 (human) = ZAP70 (human) (UniProt P43403)
[1] = system: OXSR1 (human), O95747 [T185E]
TTBK2 (human) = TTBK2 (human) (UniProt Q6IQ55)
TESK1 (human) = TESK1 (human) (UniProt Q15569)
MAP4K3 (human) = MAP4K3 (human) (UniProt Q8IVH8)
IRAK1 (human) = IRAK1 (human) (UniProt P51617)
CDK9 CCNT1 (human) = CDK9 CCNT1 (human) (UniProt P50750+O60563)
ULK1 (human) = ULK1 (human) (UniProt O75385)
ULK1 (human), sequence (O75385 whole entry, looked up): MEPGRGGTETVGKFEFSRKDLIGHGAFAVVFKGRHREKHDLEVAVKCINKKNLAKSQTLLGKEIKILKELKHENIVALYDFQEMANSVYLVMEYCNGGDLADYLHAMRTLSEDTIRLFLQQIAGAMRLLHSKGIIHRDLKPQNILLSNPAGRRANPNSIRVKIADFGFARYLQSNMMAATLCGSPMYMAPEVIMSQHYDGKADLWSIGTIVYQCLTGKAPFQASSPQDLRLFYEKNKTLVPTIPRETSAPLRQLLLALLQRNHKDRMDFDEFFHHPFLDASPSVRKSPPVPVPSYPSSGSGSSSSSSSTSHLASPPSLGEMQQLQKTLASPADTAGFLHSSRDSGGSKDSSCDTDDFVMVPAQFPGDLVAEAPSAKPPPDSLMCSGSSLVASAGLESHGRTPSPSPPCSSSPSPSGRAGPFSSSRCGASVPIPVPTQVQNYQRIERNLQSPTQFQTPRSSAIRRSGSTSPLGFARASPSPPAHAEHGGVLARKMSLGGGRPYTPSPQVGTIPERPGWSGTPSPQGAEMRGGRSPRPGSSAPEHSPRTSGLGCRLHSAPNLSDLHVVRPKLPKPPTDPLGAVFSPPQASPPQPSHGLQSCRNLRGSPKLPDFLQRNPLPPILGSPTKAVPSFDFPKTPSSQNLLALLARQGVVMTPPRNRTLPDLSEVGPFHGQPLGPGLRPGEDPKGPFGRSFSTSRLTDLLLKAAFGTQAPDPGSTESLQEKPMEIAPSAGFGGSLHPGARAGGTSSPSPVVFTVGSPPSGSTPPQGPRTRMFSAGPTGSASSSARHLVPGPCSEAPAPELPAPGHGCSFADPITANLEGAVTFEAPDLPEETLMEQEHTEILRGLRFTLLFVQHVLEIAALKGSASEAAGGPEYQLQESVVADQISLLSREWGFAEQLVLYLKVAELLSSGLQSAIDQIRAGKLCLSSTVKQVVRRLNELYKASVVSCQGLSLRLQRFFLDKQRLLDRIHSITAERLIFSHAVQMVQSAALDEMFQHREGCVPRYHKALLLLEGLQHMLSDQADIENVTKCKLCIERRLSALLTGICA

[2] = system: TGFBR1 (human), P36897 [T204D]
STK33 (human) = STK33 (human) (UniProt Q9BYT3)
TLK1 (human) = TLK1 (human) (UniProt Q9UKI8)
MAP4K5 (human) = MAP4K5 (human) (UniProt Q9Y4K4)
ABL1 (human) = ABL1 (human) (UniProt P00519)
TSSK1B (human) = TSSK1B (human) (UniProt Q9BXA7)
[3] = target: PRKAA1 PRKAB2 PRKAG1 (human) (UniProt O43741+Q13131+P54619)
TTBK1 (human) = TTBK1 (human) (UniProt Q5TCY1)
WNK1 (human) = WNK1 (human) (UniProt Q9H4A3)
WNK1 (human), sequence (Q9H4A3 whole entry, looked up): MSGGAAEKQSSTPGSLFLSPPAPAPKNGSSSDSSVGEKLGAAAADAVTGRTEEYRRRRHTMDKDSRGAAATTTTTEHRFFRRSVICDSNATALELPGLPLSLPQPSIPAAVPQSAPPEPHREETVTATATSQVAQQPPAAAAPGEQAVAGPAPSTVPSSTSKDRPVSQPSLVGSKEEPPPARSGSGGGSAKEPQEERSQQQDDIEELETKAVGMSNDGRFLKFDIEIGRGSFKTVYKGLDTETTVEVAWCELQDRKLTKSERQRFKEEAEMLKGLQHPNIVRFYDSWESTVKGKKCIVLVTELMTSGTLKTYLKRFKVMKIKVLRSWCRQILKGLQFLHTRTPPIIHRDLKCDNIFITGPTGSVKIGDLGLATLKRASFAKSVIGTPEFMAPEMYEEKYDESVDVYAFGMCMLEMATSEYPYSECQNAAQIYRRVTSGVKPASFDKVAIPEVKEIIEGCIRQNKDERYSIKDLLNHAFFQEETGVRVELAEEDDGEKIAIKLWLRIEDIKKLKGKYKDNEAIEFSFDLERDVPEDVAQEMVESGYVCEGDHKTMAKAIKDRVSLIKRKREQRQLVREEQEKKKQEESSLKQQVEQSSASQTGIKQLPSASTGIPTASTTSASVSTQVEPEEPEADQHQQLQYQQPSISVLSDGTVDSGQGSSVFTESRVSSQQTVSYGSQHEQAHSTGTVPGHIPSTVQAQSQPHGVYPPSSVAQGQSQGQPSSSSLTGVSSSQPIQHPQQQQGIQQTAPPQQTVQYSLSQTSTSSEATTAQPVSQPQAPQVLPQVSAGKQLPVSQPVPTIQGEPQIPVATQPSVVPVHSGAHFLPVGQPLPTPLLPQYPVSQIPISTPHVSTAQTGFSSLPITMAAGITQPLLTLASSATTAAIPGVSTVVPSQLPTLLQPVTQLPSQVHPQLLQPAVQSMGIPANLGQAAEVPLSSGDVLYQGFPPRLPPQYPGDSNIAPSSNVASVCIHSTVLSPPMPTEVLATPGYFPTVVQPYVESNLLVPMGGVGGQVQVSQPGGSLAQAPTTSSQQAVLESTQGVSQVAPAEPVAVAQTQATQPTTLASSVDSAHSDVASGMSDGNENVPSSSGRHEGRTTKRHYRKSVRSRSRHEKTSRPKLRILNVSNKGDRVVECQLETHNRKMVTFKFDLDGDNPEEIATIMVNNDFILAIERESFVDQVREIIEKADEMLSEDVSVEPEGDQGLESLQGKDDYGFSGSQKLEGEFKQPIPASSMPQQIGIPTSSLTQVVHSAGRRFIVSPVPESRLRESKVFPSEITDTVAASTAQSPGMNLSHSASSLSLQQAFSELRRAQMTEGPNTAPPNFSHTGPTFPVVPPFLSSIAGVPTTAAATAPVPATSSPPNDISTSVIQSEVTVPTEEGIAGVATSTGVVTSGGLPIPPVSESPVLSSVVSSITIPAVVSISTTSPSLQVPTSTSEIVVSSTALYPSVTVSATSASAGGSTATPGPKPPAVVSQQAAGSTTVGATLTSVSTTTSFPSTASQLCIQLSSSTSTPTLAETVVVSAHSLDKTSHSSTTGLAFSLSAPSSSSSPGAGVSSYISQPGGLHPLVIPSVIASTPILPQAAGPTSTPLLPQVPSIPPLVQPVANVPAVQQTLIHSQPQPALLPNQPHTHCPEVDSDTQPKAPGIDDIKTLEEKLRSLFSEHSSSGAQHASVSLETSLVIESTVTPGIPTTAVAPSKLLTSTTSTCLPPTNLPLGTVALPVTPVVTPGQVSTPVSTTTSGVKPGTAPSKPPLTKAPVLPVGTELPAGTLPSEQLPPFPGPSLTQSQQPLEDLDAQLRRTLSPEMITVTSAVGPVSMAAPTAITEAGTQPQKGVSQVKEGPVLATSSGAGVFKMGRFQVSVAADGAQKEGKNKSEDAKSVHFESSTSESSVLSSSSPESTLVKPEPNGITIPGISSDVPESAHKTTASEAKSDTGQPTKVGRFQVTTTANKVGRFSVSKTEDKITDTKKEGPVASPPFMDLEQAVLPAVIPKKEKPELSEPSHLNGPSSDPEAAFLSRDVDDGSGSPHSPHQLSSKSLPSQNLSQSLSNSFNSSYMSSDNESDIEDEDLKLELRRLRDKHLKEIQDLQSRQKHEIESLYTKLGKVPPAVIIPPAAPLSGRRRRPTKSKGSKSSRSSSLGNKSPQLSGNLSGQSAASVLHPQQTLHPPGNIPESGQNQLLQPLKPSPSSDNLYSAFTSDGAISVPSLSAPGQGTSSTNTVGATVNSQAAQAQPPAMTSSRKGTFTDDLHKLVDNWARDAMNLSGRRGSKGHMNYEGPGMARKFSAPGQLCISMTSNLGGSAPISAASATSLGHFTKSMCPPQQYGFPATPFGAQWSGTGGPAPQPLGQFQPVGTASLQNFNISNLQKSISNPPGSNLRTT

TEK (human) = TEK (human) (UniProt Q02763)
CSNK1G2 (human) = CSNK1G2 (human) (UniProt P78368)
MAP2K6 (human) = MAP2K6 (human) (UniProt P52564)
SIK3 (human) = SIK3 (human) (UniProt Q9Y2K2)
PDGFRA (human) = PDGFRA (human) (UniProt P16234)
EIF2AK3 (human) = EIF2AK3 (human) (UniProt Q9NZJ5)
STK24 (human) = STK24 (human) (UniProt Q9Y6E0)
SIK2 (human) = SIK2 (human) (UniProt Q9H0K1)

OXSR1 (human), O95747 [T185E], sequence (O95747 whole entry T185E, looked up): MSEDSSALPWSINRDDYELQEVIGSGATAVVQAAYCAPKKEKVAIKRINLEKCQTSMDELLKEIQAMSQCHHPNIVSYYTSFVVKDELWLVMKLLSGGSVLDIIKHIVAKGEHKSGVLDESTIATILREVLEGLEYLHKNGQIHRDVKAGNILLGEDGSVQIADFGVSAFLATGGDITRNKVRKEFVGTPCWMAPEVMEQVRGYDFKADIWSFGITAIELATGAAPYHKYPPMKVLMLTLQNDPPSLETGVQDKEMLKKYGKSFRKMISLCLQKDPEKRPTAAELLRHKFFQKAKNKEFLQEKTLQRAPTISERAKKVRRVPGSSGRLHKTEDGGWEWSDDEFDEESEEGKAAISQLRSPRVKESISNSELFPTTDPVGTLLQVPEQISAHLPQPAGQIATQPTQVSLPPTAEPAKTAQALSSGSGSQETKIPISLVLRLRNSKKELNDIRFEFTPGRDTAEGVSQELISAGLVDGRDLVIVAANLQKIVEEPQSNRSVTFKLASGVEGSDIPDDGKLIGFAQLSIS
MAPK7 (human), sequence (Q13164 whole entry, looked up): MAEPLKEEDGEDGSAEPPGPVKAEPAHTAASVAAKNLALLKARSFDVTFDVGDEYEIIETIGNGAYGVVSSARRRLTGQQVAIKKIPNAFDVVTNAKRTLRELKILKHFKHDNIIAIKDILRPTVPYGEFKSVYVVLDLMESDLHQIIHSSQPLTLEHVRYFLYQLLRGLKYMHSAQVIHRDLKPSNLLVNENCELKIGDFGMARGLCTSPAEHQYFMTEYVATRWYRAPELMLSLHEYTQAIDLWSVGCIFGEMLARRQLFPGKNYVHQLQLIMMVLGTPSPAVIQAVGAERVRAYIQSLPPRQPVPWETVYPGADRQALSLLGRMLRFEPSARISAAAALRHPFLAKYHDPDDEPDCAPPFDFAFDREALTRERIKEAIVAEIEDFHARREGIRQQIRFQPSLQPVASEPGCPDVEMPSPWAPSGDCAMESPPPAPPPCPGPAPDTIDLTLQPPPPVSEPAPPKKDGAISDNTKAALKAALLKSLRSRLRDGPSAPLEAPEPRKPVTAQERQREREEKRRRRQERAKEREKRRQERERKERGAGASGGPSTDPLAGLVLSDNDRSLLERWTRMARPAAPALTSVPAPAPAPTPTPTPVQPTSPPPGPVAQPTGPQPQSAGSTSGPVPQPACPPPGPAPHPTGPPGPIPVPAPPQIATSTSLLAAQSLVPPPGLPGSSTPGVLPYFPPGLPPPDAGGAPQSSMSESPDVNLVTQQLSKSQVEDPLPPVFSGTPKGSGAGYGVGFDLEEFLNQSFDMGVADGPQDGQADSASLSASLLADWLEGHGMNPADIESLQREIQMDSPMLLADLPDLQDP
STK16 (human), sequence (O75716 whole entry, looked up): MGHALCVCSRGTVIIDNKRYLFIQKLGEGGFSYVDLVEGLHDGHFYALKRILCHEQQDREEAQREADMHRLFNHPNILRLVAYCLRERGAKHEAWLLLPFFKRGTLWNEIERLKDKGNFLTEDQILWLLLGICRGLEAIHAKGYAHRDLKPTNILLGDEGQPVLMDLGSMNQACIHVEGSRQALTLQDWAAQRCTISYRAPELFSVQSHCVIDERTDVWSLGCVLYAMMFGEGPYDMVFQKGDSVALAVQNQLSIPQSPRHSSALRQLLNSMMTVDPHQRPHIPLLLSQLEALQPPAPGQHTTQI

Compound: COC(=O)/C=C/C(=O)OC
- residual activity (ULK2 (human); compound 10.0 µM): 106%
- residual activity (ULK2 (human); compound 100.0 µM): 109%
- residual activity (ULK2 (human); compound 1000.0 µM): 109%
- residual activity (PRKCG (human); compound 10.0 µM): 106%
- residual activity (PRKCG (human); compound 100.0 µM): 113%
- residual activity (PRKCG (human); compound 1000.0 µM): 114%
- residual activity (MAPK7 (human); compound 10.0 µM): 88%
- residual activity (MAPK7 (human); compound 100.0 µM): 94%
- residual activity (MAPK7 (human); compound 1000.0 µM): 97%
- residual activity (PTK6 (human); compound 10.0 µM): 102%
- residual activity (PTK6 (human); compound 100.0 µM): 112%
- residual activity (PTK6 (human); compound 1000.0 µM): 110%
- residual activity (STK16 (human); compound 10.0 µM): 114%
- residual activity (STK16 (human); compound 100.0 µM): 116%
- residual activity (STK16 (human); compound 1000.0 µM): 109%
- residual activity (DDR2 (human); compound 10.0 µM): 103%
- residual activity (DDR2 (human); compound 100.0 µM): 100%
- residual activity (NUAK1 (human); compound 10.0 µM): 97%
- residual activity (NUAK1 (human); compound 100.0 µM): 104%
- residual activity (NUAK1 (human); compound 1000.0 µM): 101%
- residual activity (ZAP70 (human); compound 10.0 µM): 116%
- residual activity (ZAP70 (human); compound 100.0 µM): 116%
- residual activity (ZAP70 (human); compound 1000.0 µM): 112%
- residual activity ([1]; compound 10.0 µM): 96%
- residual activity ([1]; compound 100.0 µM): 107%
- residual activity ([1]; compound 1000.0 µM): 116%
- residual activity (TTBK2 (human); compound 10.0 µM): 96%
- residual activity (TTBK2 (human); compound 100.0 µM): 99%
- residual activity (TTBK2 (human); compound 1000.0 µM): 96%
- residual activity (TESK1 (human); compound 10.0 µM): 84%
- residual activity (TESK1 (human); compound 100.0 µM): 89%
- residual activity (TESK1 (human); compound 1000.0 µM): 109%
- residual activity (MAP4K3 (human); compound 10.0 µM): 92%
- residual activity (MAP4K3 (human); compound 100.0 µM): 81%
- residual activity (MAP4K3 (human); compound 1000.0 µM): 85%
- residual activity (IRAK1 (human); compound 10.0 µM): 101%
- residual activity (IRAK1 (human); compound 100.0 µM): 100%
- residual activity (IRAK1 (human); compound 1000.0 µM): 97%
- residual activity (CDK9 CCNT1 (human); compound 10.0 µM): 91%
- residual activity (CDK9 CCNT1 (human); compound 100.0 µM): 98%
- residual activity (CDK9 CCNT1 (human); compound 1000.0 µM): 103%
- residual activity (ULK1 (human); compound 10.0 µM): 97%
- residual activity (ULK1 (human); compound 100.0 µM): 99%
- residual activity (ULK1 (human); compound 1000.0 µM): 103%
- residual activity ([2]; compound 10.0 µM): 93%
- residual activity ([2]; compound 1000.0 µM): 95%
- residual activity (STK33 (human); compound 10.0 µM): 93%
- residual activity (STK33 (human); compound 100.0 µM): 99%
- residual activity (STK33 (human); compound 1000.0 µM): 102%
- residual activity (TLK1 (human); compound 10.0 µM): 103%
- residual activity (TLK1 (human); compound 100.0 µM): 117%
- residual activity (TLK1 (human); compound 1000.0 µM): 110%
- residual activity (MAP4K5 (human); compound 10.0 µM): 91%
- residual activity (MAP4K5 (human); compound 100.0 µM): 87%
- residual activity (ABL1 (human); compound 10.0 µM): 98%
- residual activity (ABL1 (human); compound 100.0 µM): 105%
- residual activity (ABL1 (human); compound 1000.0 µM): 95%
- residual activity (TSSK1B (human); compound 10.0 µM): 73%
- residual activity (TSSK1B (human); compound 100.0 µM): 85%
- residual activity (TSSK1B (human); compound 1000.0 µM): 80%
- residual activity ([3]; compound 10.0 µM): 87%
- residual activity ([3]; compound 100.0 µM): 95%
- residual activity ([3]; compound 1000.0 µM): 102%
- residual activity (TTBK1 (human); compound 10.0 µM): 88%
- residual activity (TTBK1 (human); compound 100.0 µM): 101%
- residual activity (WNK1 (human); compound 10.0 µM): 109%
- residual activity (WNK1 (human); compound 100.0 µM): 104%
- residual activity (WNK1 (human); compound 1000.0 µM): 114%
- residual activity (TEK (human); compound 10.0 µM): 92%
- residual activity (TEK (human); compound 100.0 µM): 100%
- residual activity (TEK (human); compound 1000.0 µM): 99%
- residual activity (CSNK1G2 (human); compound 10.0 µM): 92%
- residual activity (CSNK1G2 (human); compound 100.0 µM): 101%
- residual activity (CSNK1G2 (human); compound 1000.0 µM): 101%
- residual activity (MAP2K6 (human); compound 10.0 µM): 92%
- residual activity (MAP2K6 (human); compound 100.0 µM): 88%
- residual activity (SIK3 (human); compound 10.0 µM): 98%
- residual activity (SIK3 (human); compound 1000.0 µM): 110%
- residual activity (PDGFRA (human); compound 10.0 µM): 101%
- residual activity (PDGFRA (human); compound 100.0 µM): 103%
- residual activity (PDGFRA (human); compound 1000.0 µM): 104%
- residual activity (EIF2AK3 (human); compound 10.0 µM): 95%
- residual activity (EIF2AK3 (human); compound 100.0 µM): 107%
- residual activity (STK24 (human); compound 100.0 µM): 104%
- residual activity (STK24 (human); compound 1000.0 µM): 112%
- residual activity (SIK2 (human); compound 10.0 µM): 82%
- residual activity (SIK2 (human); compound 100.0 µM): 94%
- residual activity (SIK2 (human); compound 1000.0 µM): 103%

Source: the kinase profiling compilation of Christmann-Franck et al. (2016)
